In US7642320B2, “Polymer additives with improved permanence and surface affinity” (Ciba Specialty Chemicals Corporation, priority 2001, dated 2010):

Assay: Solubility in polar media (methanol, ambient temperature)
Format: physicochemical

CCC(C)(C)c1cc(-n2nc3ccccc3n2)c(O)c(C(C)(C)CC)c1 [Tinuvin ® 328]
Solubility in methanol (wt %): 0.6 wt %
